Positions of bridges follow the written chain, without caps; N, C: chain ends. No end group written: not given here.

The test system of series [1] is SK-OV-3 human ovarian carcinoma cells. The settings on record: SK-OV-3 model, 10 mg/kg i.p. thrice a week for 7 weeks. On the procedure:
(§1) Suspensions of A2780 or SK-OV-3 human ovarian carcinoma cells were s.c. inoculated (5 × 10^6 cells in 200 µL per animal) into the left flank of BALB/c athymic nude mice. Tumor measurements (length, L; width, W) were performed twice a week, using a digital caliper, and total tumor volume was calculated according to V = 0.5 × L × W^2. For randomization, mice were allocated to groups (n = 13–16 in each) based on similar mean and distribution of tumor volume on day 13. […] Body weight (BW) was monitored every 2 to 3 days, while clinical signs and behavior pattern were daily checked until study termination. Loss of 15% BW or tumor volume exceeding 1 cm^3 were considered an indication for euthanasia, as well as severe tumor necrosis, as it was sometimes associated with loss of body fluid and/or infection.

Series [2] deals with A2780 human ovarian carcinoma cells. Conditions: A2780 model, 10 mg/kg i.p. thrice a week for 2 weeks. How it is done: as §1
The next series concerns platelets. In words: Washed platelets flow cytometry analysis of activation (CD62P). In kind it is cell-based, mouse. The settings on record: washed platelets pooled from 4 treated ID8 tumor-bearing mice per group; resting and 3.33 U/mL thrombin; CD62P exposure. How it is done:
Washed platelets were freshly prepared as described elsewhere from a pool of 4 mouse blood samples by treatment group (ID8 allograft i.p. model). […] To promote activation, platelets were incubated with 3.33 U.mL^−1 thrombin (#D8537, Sigma-Aldrich) for 5 min, at room temperature. Platelets were probed with both a (FITC)-conjugated monoclonal anti-CD41 antibody (clone MWReg30; #553848, BD Pharmingen) and a (PE)-conjugated monoclonal anti-CD62P antibody (clone Wug.E9; #M130-2, Emfret Analytics) for 10 min, at room temperature, in the dark. IgG1-PE (clone R3-34; #P190_2, Emfret Analytics) and IgG1-FITC (clone R3-34; #553924, BD Pharmingen) were employed as isotype controls. Platelet isolation was performed by gating in forward and side scatter, as well as relying on CD41 positivity, while CD62P (P-selectin) membrane exposure reflects platelet activation.
Figure S2. […] 8 weeks old female and
(a) Photographs of spleen isolated on
Whitney U test statistical analyses (* p < 0.05).
mice having received chronic TAX2 or combination therapy. Upon sacrifice, blood was collected from
samples by treatment group.
investigated by flow cytometry. Platelet population was isolated based on anti‐CD41 positivity,
Activation was analyzed on […]
A general note: A flow cytometer gives signals particle by particle.

For series [3] the following is noted: freshly collected EDTA plasma from Sprague Dawley rats, 500 µL, spiked at 50 ng/mL, 2 h at 4 °C or room temperature, sampled every 30 min, HPLC-MS/MS, n = 2 per condition (method b35: 1 µM, 37 °C, human plasma).
For series [4] the following is noted: 0.25 to 20 mg/mL in MilliQ water, 0.9% NaCl or 0.9% NaCl with 15 mM Tris; from lyophilized powder; A205, path length 0.05 cm, compared to powder weighing. On the procedure:
Absorbance values at 205 nm were measured on a NanoVue Plus^TM spectrophotometer (GE Healthcare, Chicago, IL, USA) using a quartz cuvette with a 0.05 cm path length.

Series [5] addresses T1, recombinant mouse thrombospondin-1 with a C-terminal 6His tag (mouse, UniProt P35441 19-1170).
T1 construct: thrombospondin-1 (TSP-1), mouse, recombinant; also called rmTSP-1; TSP-1; source: bought: R&D Systems (#7859-TH); not shown: 6His, C-terminal, kept
Description: SPR; Biacore T200; rmTSP-1 captured by its C-terminal 6His tag on anti-histidine antibody amine-coupled to a CM5 chip (2931 RU); peptides injected for 120 s at 30 uL/min, 25 °C; running buffer 10 mM HEPES, 0.15 M NaCl, 0.05% surfactant P20, 5 mM CaCl2, pH 7.4; single injections at 1 mM; single-cycle kinetics at 15.625-250 uM; contact-time experiment (30-600 s) at 500 uM TAX2; two-state reaction model, apparent KD. Conditions: both partners purified. A general note: Surface plasmon resonance follows binding to a sensor surface in real time, without labels.

T1 sequence (P35441 19-1170): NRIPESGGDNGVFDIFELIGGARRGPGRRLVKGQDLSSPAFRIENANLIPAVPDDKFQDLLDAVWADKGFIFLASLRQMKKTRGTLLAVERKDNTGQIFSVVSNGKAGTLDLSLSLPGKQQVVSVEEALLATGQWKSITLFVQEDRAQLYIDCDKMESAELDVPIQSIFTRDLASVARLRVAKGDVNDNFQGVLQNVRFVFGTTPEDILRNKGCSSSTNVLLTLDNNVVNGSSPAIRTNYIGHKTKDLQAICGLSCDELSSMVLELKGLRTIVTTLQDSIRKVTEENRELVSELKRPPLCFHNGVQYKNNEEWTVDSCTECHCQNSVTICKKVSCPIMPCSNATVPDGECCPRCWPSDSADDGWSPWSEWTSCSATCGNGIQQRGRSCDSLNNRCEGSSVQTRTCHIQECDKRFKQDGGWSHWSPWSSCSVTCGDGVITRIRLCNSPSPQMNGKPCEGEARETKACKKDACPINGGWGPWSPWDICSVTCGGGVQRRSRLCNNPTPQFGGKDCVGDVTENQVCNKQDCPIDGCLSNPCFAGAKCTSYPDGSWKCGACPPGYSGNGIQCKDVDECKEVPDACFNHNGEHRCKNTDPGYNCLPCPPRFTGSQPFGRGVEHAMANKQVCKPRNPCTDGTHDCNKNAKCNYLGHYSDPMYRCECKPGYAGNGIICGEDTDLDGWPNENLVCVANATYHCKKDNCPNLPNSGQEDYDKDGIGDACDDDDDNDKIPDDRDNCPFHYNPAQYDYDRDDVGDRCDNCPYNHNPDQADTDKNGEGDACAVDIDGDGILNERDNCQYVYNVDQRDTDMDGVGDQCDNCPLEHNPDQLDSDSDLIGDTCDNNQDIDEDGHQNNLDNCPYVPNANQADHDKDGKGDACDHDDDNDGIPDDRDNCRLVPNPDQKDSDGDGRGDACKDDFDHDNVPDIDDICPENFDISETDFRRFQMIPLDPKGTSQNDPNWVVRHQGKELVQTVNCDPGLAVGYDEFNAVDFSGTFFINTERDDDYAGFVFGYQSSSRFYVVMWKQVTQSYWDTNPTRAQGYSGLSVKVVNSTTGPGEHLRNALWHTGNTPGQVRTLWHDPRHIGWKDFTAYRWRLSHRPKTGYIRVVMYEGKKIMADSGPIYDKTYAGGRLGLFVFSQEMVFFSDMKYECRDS

In the case of `CC(C)C[C@@H]1NC(=O)[C@H](CC(C)C)NC(=O)[C@H](CCC(N)=O)NC(=O)[C@H](CO)NC(=O)[C@H](C(C)C)NC(=O)[C@H](CCC(=O)O)NC(=O)[C@@H](N)CSSC[C@@H](C(=O)O)NC(=O)[C@H](C)NC(=O)[C@H](CC(=O)O)NC(=O)CNC(=O)[C@H](CCCCN)NC1=O` [TAX2], the “safety (body weight, clinical signs)” value in series [1] and in series [2] was “appeared to be safe” each time. In the series on platelets, the “impact on platelet ability to activate” value is “Neither TAX2 monotherapy nor combined to anti-PD-1 mAb had any impact”. Further, the “stability in plasma (remaining TAX2, % of concentration at T0)” value in series [3] is listed as “remains stable in freshly collected plasma up to 2 hours”. For the same molecule, the “solubility in aqueous solvents” value in series [4] was “completely soluble”.

B1: TAX2 cyclic peptide (peptide)
peptide: CEVSQLLKGDAC
modifications: disulfide 1-12 (inferred); also: acetate salt
notes: disulfide linked 12 amino-acid cyclic peptide stretch of CD47; The two end residues are replaced by cysteines to close the ring; also called TAX2 peptide; TAX2 drug candidate; source: synthetic peptide (solid-phase synthesis, Fmoc chemistry; Genecust), purity >98%
As to B1, in series [5], the binding result was “binds”.

Values taken from publication PMC8508526 (Cancers, 2021).
